Measurements published in patent publication US11028127B2, “Peptides capable of reactivating p53 mutants” (Yeda Research and Development Co. Ltd., priority 2013, dated 2021).

Molecular target: T1, Mut-p53 (R175H p53) (Homo sapiens, UniProt P04637, R175H)
T1 construct: a hot spot full length mutant p53 Mut-p53 R175H (R175H p53); expressed in transfected cells; host or cells: H1299 (p53-null) cells stably overexpressing R175H p53; cell extract
Test: Sandwich ELISA for p53 conformation (PAb1620/PAb240 reactivity)
Type: biochemical
Method: To measure the conformational effect of the peptides on Mut-p53, a micro-titer plate was coated with either PAb240, PAb1620 or pAb421 (as a positive control and standard for total p53 protein, since the antibody used recognizes both WT and mutant conformations), overnight incubated, washed, blocked, and cell extracts (with or without peptides) were added for an additional 2 hours. After removal of extracts, plates were washed and incubated with the αp53-HRP conjugated Ab for the detection of p53 levels. A TMB (substrate of HRP) assay was performed and optical density was determined at 450 nm. WT p53 served as a positive control for reactivity with PAb1620, and Mut-p53 served as a negative control. The results are presented as the ratio of absorbance between the PAb1620 or PAb240 samples and the control […] sample. MCF7 and H1299-Mut-p53 (ts) A135V (TS) cells were used as positive controls for the WT p53 conformation (1620/240 ratio equals or exceeds 5:1).
96-well plates were coated using 3 different antibodies (1 type of antibody (Ab) in each well): PAb421 recognizes both conformations of p53 and binds to a C-terminus epitope; PAb240 recognizes mutant conformation of p53, binds to epitope within the core domain (amino acids 212-217) (Stephen, C. W. and D. P. Lane, Mutant conformation of p53. Precise epitope mapping using a filamentous phage epitope library. J. Mol. Biol., 1992. 225(3): p. 577-83) which is accessible to the Ab when the protein is partially denatured (for example, when the DBD is mutated); and PAb1620, which recognizes WT conformation of p53, binds to epitope with in the core domain (aa 156, 206-210), formed when folding is in WT conformation (Wang, P. L., F. Salt, and G. Winter, The ‘wild type’ conformation of p53: epitope mapping using hybrid proteins. Oncogene, 2001. 20(18): p. 2318-24).
Wells were incubated overnight (ON) with 100 μl Ab (5 μg/ml) in room temp (RT). The liquid was discarded, and the wells were washed 3 times with Phosphate buffered saline (PBS), 200 μl per each wash. Next, blocking with 200 μl of 5% bovine serum albumin (BSA) diluted in PBS in each well for 1.5 hours at room temperature (RT) was performed. Blocking buffer was discarded, followed by 3 washes in PBS as described above. Samples of mutant and WT p53 proteins (100 μl, 10 μg/ml), together with control peptides pCAP-710 (LPNPPER, SEQ ID NO:328) and pCAP-1220 ([…], SEQ ID NO:368) (5 μg/ml, Sigma Aldrich, or with test peptides 1-153 (5 μg/ml), were incubated for 1.5 hours together, and then added to the wells. Samples were rotated and incubated for 1 hour at RT. Samples were discarded, following 4 washes as described above, using Trisphosphate buffered saline (TPBS). Next, horseradish peroxidase (HRP) conjugated streptavidin p53 antibody (10 μg/ml HAF1355 (R&D)) was added to the wells and incubated at RT for 1 hour. After the plate was washed 3 times in TPBS, TMB substrate solution (50 μl each well, Thermo, (Cat. No. ES001-1L-K)) was added and incubated at 37° c. for 20 min. The reaction was stopped with 2M sulfuric acid (50 μl). The absorbance was measured at 450 nm with a spectrophotometer. Protein concentration was determined by dividing the absorbencies of each sample to the absorbance of Ab 421 samples.
The first screening strategy was based on ELISA. A version of sandwich ELISA was used to examine the effect of the lead test peptides on p53 conformation. To measure the conformational effect of the peptides on Mut-p53, a micro-titer plate was coated with PAb240, PAb1620 or pAb421 (as a positive control), and then the reactivity of p53 to these antibodies was examined. WT p53 served as a positive control for reactivity with PAb1620, and Mut-p53 served as a negative control. To examine the effect of a tested peptide it was added to a solution containing Mut-p53 and change in reactivity to either Ab was tested. […] Several ELISA experiments using different cell extracts were performed. […]

Question: What does the source list for YRRLLIGMMWRRRRRRRRRRR [pCAP-68]?
Answer: effect on Mut-p53 conformation (conformational change): significant shift in Mut-p53 conformation towards PAb1620; reactivity of R175H Mut-p53 towards PAb1620 and PAb240 (conformational change) (extract of H1299 cells overexpressing R175H p53, peptide 50 ng/ml, 2 hours): increased reactivity of R175H Mut-p53 towards PAb1620 and decreased reactivity towards PAb240
